Source: PubChem BioAssay AID200 (DTP/NCI, 2004)
“And” between values parts separate entries of the source, which are not always exact repeats. Identical values can stand only once. Inconclusive results and toxic doses are left out.

Tested on: B6C3F1 mice, B16 melanoma ip, median survival T/C
Experiment: NCI In Vivo Anticancer Drug Screen. Data for tumor model B16 Melanoma (intraperitoneal) in B6C3F1 mice
Details: endpoint: median survival time, higher = longer survival
How it was run: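 Antitumor effect was judged in mice with transplanted tumors by dividing the treated group's survival measure by that of vehicle controls.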

[1] = dose: 16.0 mg/kg/injection, schedule: Q01DX009 (ip), vehicle: saline
[2] = dose: 12.5 mg/kg/injection, schedule: Q01DX009 (ip), vehicle: saline with Tween-80
[3] = dose: 25.0 mg/kg/injection, schedule: Q01DX009 (ip), vehicle: saline with Tween-80
[4] = dose: 50.0 mg/kg/injection, schedule: Q01DX009 (ip), vehicle: saline with Tween-80
[5] = dose: 6.25 mg/kg/injection, schedule: Q01DX009 (ip), vehicle: saline
[6] = dose: 25.0 mg/kg/injection, schedule: Q01DX009 (ip), vehicle: saline
[7] = dose: 25.0 mg/kg/injection, schedule: Q01DX009 (ip), vehicle: sodium bicarbonate
[8] = dose: 50.0 mg/kg/injection, schedule: Q01DX009 (ip), vehicle: sodium bicarbonate
[9] = dose: 100.0 mg/kg/injection, schedule: Q01DX009 (ip), vehicle: sodium bicarbonate
[10] = dose: 200.0 mg/kg/injection, schedule: Q01DX009 (ip), vehicle: sodium bicarbonate
[11] = dose: 12.5 mg/kg/injection, schedule: Q01DX009 (ip), vehicle: saline
[12] = dose: 100.0 mg/kg/injection, schedule: Q01DX009 (ip), vehicle: saline with Tween-80
[13] = dose: 200.0 mg/kg/injection, schedule: Q01DX009 (ip), vehicle: saline with Tween-80

O=C1c2ccccc2C(=O)c2c(NCCNCCO)ccc(NCCNCCO)c21
T/C (dose: 1.0 mg/kg/injection, schedule: Q01DX009 (ip), vehicle: other): 151 % of control
T/C (dose: 2.0 mg/kg/injection, schedule: Q01DX009 (ip), vehicle: other): 180 % of control and 186 % of control
T/C (dose: 2.5 mg/kg/injection, schedule: Q01DX009 (ip), vehicle: water): 195 % of control
T/C (dose: 4.0 mg/kg/injection, schedule: Q01DX009 (ip), vehicle: other): 195 % of control and 248 % of control
T/C (dose: 4.0 mg/kg/injection, schedule: Q01DX009 (ip), vehicle: saline): 179 % of control
T/C (dose: 5.0 mg/kg/injection, schedule: Q01DX009 (ip), vehicle: water): 205 % of control
T/C (dose: 8.0 mg/kg/injection, schedule: Q01DX009 (ip), vehicle: other): 218 % of control and 243 % of control
T/C (dose: 8.0 mg/kg/injection, schedule: Q01DX009 (ip), vehicle: saline): 234 % of control
T/C (dose: 10.0 mg/kg/injection, schedule: Q01DX009 (ip), vehicle: water): 215 % of control
T/C (dose: 16.0 mg/kg/injection, schedule: Q01DX009 (ip), vehicle: other): 215 % of control and 231 % of control
T/C [1]: 292 % of control
T/C (dose: 20.0 mg/kg/injection, schedule: Q01DX009 (ip), vehicle: water): 220 % of control
T/C (dose: 32.0 mg/kg/injection, schedule: Q01DX009 (ip), vehicle: saline): 292 % of control
T/C (dose: 62.5 mg/kg/injection, schedule: Q01DX001 (ip), vehicle: saline): 153 % of control

O=C(Nc1ccccc1)c1c(O)[nH]c(=O)[nH]c1=O
T/C [2]: 103 % of control
T/C [3]: 110 % of control and 100 % of control
T/C [4]: 114 % of control and 115 % of control

Cc1[nH]ccc(=O)c1O
T/C (dose: 16.0 mg/kg/injection, schedule: Q01DX009 (ip), vehicle: saline with Tween-80): 103 % of control
T/C (dose: 32.0 mg/kg/injection, schedule: Q01DX009 (ip), vehicle: saline with Tween-80): 103 % of control
T/C (dose: 64.0 mg/kg/injection, schedule: Q01DX009 (ip), vehicle: saline with Tween-80): 109 % of control
T/C (dose: 128.0 mg/kg/injection, schedule: Q01DX009 (ip), vehicle: saline with Tween-80): 111 % of control
T/C (dose: 256.0 mg/kg/injection, schedule: Q01DX009 (ip), vehicle: saline with Tween-80): 118 % of control

CC1=C(C)C(=O)O[C@@H]([C@](C)(O)[C@]2(O)CC[C@@]3(O)[C@@H]4C[C@H]5O[C@]56[C@@H](O)C=CC(=O)[C@]6(C)[C@H]4CC[C@]23C)C1
T/C (dose: 0.25 mg/kg/injection, schedule: Q01DX009 (ip), vehicle: saline + alcohol): 122 % of control
T/C (dose: 0.25 mg/kg/injection, schedule: Q01DX009 (ip), vehicle: saline): 107 % of control
T/C (dose: 0.5 mg/kg/injection, schedule: Q01DX009 (ip), vehicle: saline + alcohol): 117 % of control
T/C (dose: 0.5 mg/kg/injection, schedule: Q01DX009 (ip), vehicle: saline): 116 % of control
T/C (dose: 1.0 mg/kg/injection, schedule: Q01DX009 (ip), vehicle: saline + alcohol): 122 % of control
T/C (dose: 1.0 mg/kg/injection, schedule: Q01DX009 (ip), vehicle: saline): 115 % of control and 124 % of control
T/C (dose: 2.0 mg/kg/injection, schedule: Q01DX009 (ip), vehicle: saline): 115 % of control
T/C (dose: 4.0 mg/kg/injection, schedule: Q01DX009 (ip), vehicle: saline + alcohol): 150 % of control
T/C [1]: 152 % of control and 171 % of control
T/C (dose: 16.0 mg/kg/injection, schedule: Q01DX009 (ip), vehicle: suspension in saline): 170 % of control

CCCCNC(C)C1(O)Cc2c(O)c3c(c(O)c2C(OC2CC(N)C(O)C(C)O2)C1)C(=O)c1c(OC)cccc1C3=O (stereo not given)
T/C (dose: 5.0 mg/kg/injection, schedule: Q01DX009 (ip), vehicle: saline): 120 % of control
T/C (dose: 10.0 mg/kg/injection, schedule: Q01DX009 (ip), vehicle: saline): 174 % of control and 193 % of control
T/C (dose: 20.0 mg/kg/injection, schedule: Q01DX009 (ip), vehicle: saline): 160 % of control and 222 % of control
T/C (dose: 40.0 mg/kg/injection, schedule: Q01DX009 (ip), vehicle: saline): 190 % of control and 333 % of control
T/C (dose: 80.0 mg/kg/injection, schedule: Q01DX009 (ip), vehicle: saline): 232 % of control and 333 % of control

O=c1c(O)c(O)c1=O.[NH2-].[NH2-].[NH2-].[NH2-].[NH2-].[Ru+5]
T/C (dose: 3.12 mg/kg/injection, schedule: Q01DX009 (ip), vehicle: saline): 110 % of control
T/C (dose: 3.75 mg/kg/injection, schedule: Q01DX009 (ip), vehicle: saline): 104 % of control
T/C [5]: 120 % of control
T/C (dose: 10.42 mg/kg/injection, schedule: Q01DX009 (ip), vehicle: saline): 122 % of control
T/C [6]: 87 % of control

Cc1c2ccccc2c(C)c2c1cc(C(=O)O)c1ccccc12
T/C [7]: 99 % of control
T/C [8]: 105 % of control
T/C [9]: 108 % of control
T/C [10]: 109 % of control
T/C (dose: 400.0 mg/kg/injection, schedule: Q01DX009 (ip), vehicle: sodium bicarbonate): 101 % of control

CC1(C)N=C(N)N=C(N)N1c1ccc(F)c(C(F)(F)F)c1
T/C (dose: 0.37 mg/kg/injection, schedule: Q01DX009 (ip), vehicle: saline): 93 % of control
T/C (dose: 0.75 mg/kg/injection, schedule: Q01DX009 (ip), vehicle: saline): 96 % of control
T/C (dose: 1.5 mg/kg/injection, schedule: Q01DX009 (ip), vehicle: saline): 94 % of control
T/C (dose: 3.0 mg/kg/injection, schedule: Q01DX009 (ip), vehicle: saline): 99 % of control
T/C (dose: 6.0 mg/kg/injection, schedule: Q01DX009 (ip), vehicle: saline): 106 % of control
T/C (dose: 12.0 mg/kg/injection, schedule: Q01DX009 (ip), vehicle: saline): 113 % of control
T/C [11]: 120 % of control

CN1CCC(c2ccccc2)(c2ccccc2)C(=O)C1
T/C [3]: 97 % of control
T/C [4]: 90 % of control
T/C [12]: 93 % of control and 95 % of control

Nc1ccc2ccc(N)cc2c1
T/C [3]: 109 % of control
T/C [4]: 109 % of control
T/C [12]: 116 % of control
T/C [13]: 105 % of control

OC1(CSc2ccccc2)CCCCC1
T/C [2]: 90 % of control and 105 % of control
T/C [3]: 93 % of control and 102 % of control
T/C [4]: 117 % of control and 95 % of control
T/C [12]: 93 % of control and 102 % of control
T/C [13]: 105 % of control
T/C (dose: 400.0 mg/kg/injection, schedule: Q01DX009 (ip), vehicle: saline with Tween-80): 89 % of control

CCC1(O)C(=O)OCc2c1cc1n(c2=O)Cc2cc3ccccc3nc2-1 (stereo not given)
T/C (dose: 0.75 mg/kg/injection, schedule: Q01DX009 (ip), vehicle: other): 156 % of control
T/C (dose: 1.5 mg/kg/injection, schedule: Q01DX009 (ip), vehicle: other): 165 % of control

CC(=O)OCC1OC(OC2=C(CC=C(C)C)C(=O)c3ccccc3C2=O)C(OC(C)=O)C(OC(C)=O)C1OC(C)=O (stereo not given)
T/C (dose: 3.12 mg/kg/injection, schedule: Q01DX009 (ip), vehicle: Klucel (hydroxypropylcellulose) (HPC)): 104 % of control
T/C (dose: 6.25 mg/kg/injection, schedule: Q01DX009 (ip), vehicle: Klucel (hydroxypropylcellulose) (HPC)): 95 % of control
T/C (dose: 12.5 mg/kg/injection, schedule: Q01DX009 (ip), vehicle: Klucel (hydroxypropylcellulose) (HPC)): 98 % of control
T/C (dose: 25.0 mg/kg/injection, schedule: Q01DX009 (ip), vehicle: Klucel (hydroxypropylcellulose) (HPC)): 106 % of control
T/C (dose: 50.0 mg/kg/injection, schedule: Q01DX009 (ip), vehicle: Klucel (hydroxypropylcellulose) (HPC)): 94 % of control

O=C(O)/C=C(\F)C(=O)O
T/C [5]: 97 % of control and 100 % of control
T/C [11]: 102 % of control and 107 % of control
T/C [6]: 108 % of control and 117 % of control
T/C (dose: 50.0 mg/kg/injection, schedule: Q01DX009 (ip), vehicle: saline): 113 % of control and 114 % of control
T/C (dose: 100.0 mg/kg/injection, schedule: Q01DX009 (ip), vehicle: saline): 103 % of control and 113 % of control
T/C (dose: 200.0 mg/kg/injection, schedule: Q01DX009 (ip), vehicle: saline): 113 % of control and 103 % of control

Cn1cnc([N+](=O)[O-])c1Sc1nc(N)nc2c1ncn2C1OC(CO)C(O)C1O (stereo not given)
T/C (dose: 3.12 mg/kg/injection, schedule: Q01DX009 (ip), vehicle: suspension in saline): 116 % of control
T/C (dose: 3.13 mg/kg/injection, schedule: Q01DX009 (ip), vehicle: saline with Tween-80): 111 % of control
T/C (dose: 6.25 mg/kg/injection, schedule: Q01DX009 (ip), vehicle: saline with Tween-80): 97 % of control
T/C (dose: 6.25 mg/kg/injection, schedule: Q01DX009 (ip), vehicle: suspension in saline): 117 % of control
T/C [2]: 94 % of control
T/C (dose: 12.5 mg/kg/injection, schedule: Q01DX009 (ip), vehicle: suspension in saline): 93 % of control

O=C(NC(Cc1ccc(I)cc1)C(=O)O)c1ccc(Br)cc1 (stereo not given)
T/C [7]: 96 % of control
T/C [8]: 104 % of control
T/C [9]: 101 % of control
T/C [10]: 97 % of control
